Laboratory results taken from ChEMBL document CHEMBL1926599, “Bis(oxyphenylene)benzimidazoles: a novel class of anti-Plasmodium falciparum agents” (Bioorg Med Chem, 2011).
Active and inactive are the calls of the source. The rule behind the calls is not given here.

Key:
[1] = test system: Trypanosoma brucei rhodesiense; test: Antitrypanosomal activity against bloodstream form of Trypanosoma brucei rhodesiense STIB 900 after 70 hrs by resazurin-based spectrophotometric assay; type: functional, organism-based; details: STIB 900, 70 h
[2] = Selectivity ratio of IC50 for rat L6 cells to IC50 for Plasmodium falciparum K1; type: ADME, cell-based; details: read-out: Ratio IC50
[3] = test system: Leishmania donovani; test: Antileishmanial activity against Leishmania donovani MHOM-ET-67/L82 after 72 hrs by resazurin-based spectrophotometric assay; type: functional, organism-based; details: MHOM-ET-67/L82, 72 h
[4] = test system: L6; test: Cytotoxicity against rat L6 cells after 72 hrs by resazurin-based spectrophotometric assay; type: cell-based; details: L6, 72 h
[5] = test system: Trypanosoma cruzi; test: Antitrypanosomal activity against trypomastigote form of Trypanosoma cruzi Tulahuen C2C4 expressing Lac Z infected in rat L6 cells after 96 hrs by spectrophotometry; type: functional, organism-based; details: Tulahuen C2C4, L6, 96 h
[6] = test system: Plasmodium falciparum; test: Antiplasmodial activity against chloroquine and pyrimethamine-resistant Plasmodium falciparum K1 assessed as inhibition of [3H]hypoxanthine incorporation incubated for 48 hrs prior to [3H] hypoxanthine addition measured after 24 hrs by liquid scintillation counting; type: functional, organism-based
[7] = test system: Giardia intestinalis; test: Antiprotozoal activity against Giardia intestinalis G1 after 70 hrs by resazurin-based spectrophotometric assay; type: functional, organism-based; details: Giardia duodenalis, G1, 70 h
[8] = test system: Entamoeba histolytica; test: Antiprotozoal activity against Entamoeba histolytica Hk-9 trophozoites after 70 hrs by resazurin-based spectrophotometric assay; type: functional, organism-based; details: Hk-9, 70 h
[9] = Inhibition of beta-hematin formation in aqueous acetate buffer; type: functional
[10] = Selectivity ratio of IC50 for rat L6 cells to IC50 for Entamoeba histolytica Hk-9; type: ADME, cell-based; details: read-out: Ratio IC50
[11] = Selectivity ratio of IC50 for rat L6 cells to IC50 for Leishmania donovani MHOM-ET-67/L82; type: ADME, cell-based; details: read-out: Ratio IC50
[12] = test system: Trypanosoma brucei rhodesiense; test: Antitrypanosomal activity against bloodstream form of Trypanosoma brucei rhodesiense STIB 900 after 70 hrs by resazurin-based spectrophotometric assay relative to melarsoprol; type: functional
[13] = Selectivity ratio of IC50 for rat L6 cells to IC50 for bloodstream form of Trypanosoma brucei rhodesiense STIB 900; type: ADME, cell-based; details: read-out: Ratio IC50
[14] = Selectivity ratio of IC50 for rat L6 cells to IC50 for Giardia intestinalis G1; type: ADME, cell-based; details: read-out: Ratio IC50

Structure (SMILES)	IC50 [1] [µM]	selectivity ratio [2]	IC50 [3] [µM]	IC50 [4] [µM]	IC50 [5] [µM]	IC50 [6] [µM]	IC50 [7] [µM]	IC50 [8] [µM]	inhibition [9]	selectivity ratio [10]	selectivity ratio [11]	Ratio IC50 [12]	selectivity ratio [13]	selectivity ratio [14]
c1ccc(COc2ccc(-c3nc4ccccc4[nH]3)cc2)c(COc2ccc(-c3nc4ccccc4[nH]3)cc2)c1	1.32	17	2.33	5.89	6.07	0.34	–	–	–	–	–	–	–	–
c1cc(OCCCCCOc2cccc(-c3nc4ccccc4[nH]3)c2)cc(-c2nc3ccccc3[nH]2)c1	1.33	10	1.19	3.56	1.7	0.34	18.5	27.8	–	–	–	–	–	–
c1cc(OCCCCOc2cccc(-c3nc4ccccc4[nH]3)c2)cc(-c2nc3ccccc3[nH]2)c1	18.5	92	9.99	21.2	23.9	0.23	36	211	Active	–	–	–	–	–
c1cc(OCOc2cccc(-c3nc4ccccc4[nH]3)c2)cc(-c2nc3ccccc3[nH]2)c1	14.2	11	6.19	18.9	11.6	1.69	–	–	–	–	–	–	–	–
c1ccc2[nH]c(-c3ccc(OCOc4ccc(-c5nc6ccccc6[nH]5)cc4)cc3)nc2c1	2.13	21	16.5	14.4	11.3	0.69	–	–	–	–	–	–	–	–
c1ccc2[nH]c(-c3ccc(OCCCOc4ccc(-c5nc6ccccc6[nH]5)cc4)cc3)nc2c1	1.5	13	2.67	3.56	3.91	0.28	0.74	3.37	Active	1	–	–	–	–
c1cc(OCCCCCCOc2cccc(-c3nc4ccccc4[nH]3)c2)cc(-c2nc3ccccc3[nH]2)c1	2.37	29	2.57	7.98	3.88	0.28	17.7	73.7	–	–	–	–	–	–
Cc1ncc([N+](=O)[O-])n1CCO [METRONIDAZOLE]	–	–	–	–	–	–	1.56	5.82	–	–	–	–	–	–
O=C(Cn1ccnc1[N+](=O)[O-])NCc1ccccc1 [BENZNIDAZOLE]	–	–	–	–	1.13	–	–	–	–	–	–	–	–	–
c1cc(OCc2ccc(COc3cccc(-c4nc5ccccc5[nH]4)c3)cc2)cc(-c2nc3ccccc3[nH]2)c1	24	54	8.44	10.4	10.9	0.19	–	–	–	–	–	–	–	–
c1ccc2[nH]c(-c3ccc(OCc4ccc(COc5ccc(-c6nc7ccccc7[nH]6)cc5)cc4)cc3)nc2c1	2.12	70	0.8	16	26.3	0.23	–	–	–	–	–	–	–	–
c1cc(COc2ccc(-c3nc4ccccc4[nH]3)cc2)cc(COc2ccc(-c3nc4ccccc4[nH]3)cc2)c1	3.56	> 450	1.05	> 172	113	0.38	–	–	–	–	> 164	–	–	–
c1cc(OCCCCCCCCCOc2cccc(-c3nc4ccccc4[nH]3)c2)cc(-c2nc3ccccc3[nH]2)c1	2.37	39	6.59	21.9	4.98	0.57	45.5	46.2	–	–	–	–	–	–
c1ccc2[nH]c(-c3ccc(OCCCCOc4ccc(-c5nc6ccccc6[nH]5)cc4)cc3)nc2c1	2.76	18	3.25	7.84	5.75	0.44	17.9	8.13	Active	1	–	–	–	–
c1cc(OCc2ccccc2COc2cccc(-c3nc4ccccc4[nH]3)c2)cc(-c2nc3ccccc3[nH]2)c1	2.66	20	3	7.02	2.53	0.34	–	–	–	–	–	–	–	–
c1ccc2[nH]c(-c3ccc(OCCOc4ccc(-c5nc6ccccc6[nH]5)cc4)cc3)nc2c1	154	13	> 202	25.4	133	2.01	124	191	–	–	–	–	–	–
c1cc(OCCOc2cccc(-c3nc4ccccc4[nH]3)c2)cc(-c2nc3ccccc3[nH]2)c1	16.6	2	24.1	5.04	4.68	2.58	11.7	84	Active	–	–	–	–	–
c1ccc2[nH]c(-c3ccc(OCCCCCCCCOc4ccc(-c5nc6ccccc6[nH]5)cc4)cc3)nc2c1	39.1	67	98.2	19.8	57	0.3	10.4	65.8	–	–	–	100	–	–
c1cc(COc2cccc(-c3nc4ccccc4[nH]3)c2)cc(COc2cccc(-c3nc4ccccc4[nH]3)c2)c1	3.6	198	4.63	79.6	5.99	0.4	–	–	–	–	–	–	–	–
c1ccc2[nH]c(-c3ccc(OCCCCCCCCCCOc4ccc(-c5nc6ccccc6[nH]5)cc4)cc3)nc2c1	9.34	257	124	46	88.5	0.18	22.1	19.3	–	–	–	–	–	–
c1cc(OCCCOc2cccc(-c3nc4ccccc4[nH]3)c2)cc(-c2nc3ccccc3[nH]2)c1	8.01	4	3.91	9.82	8.92	2.41	56.1	78.3	Active	–	–	–	–	–
c1ccc2[nH]c(-c3ccc(OCCCCCCOc4ccc(-c5nc6ccccc6[nH]5)cc4)cc3)nc2c1	7.22	40	6.59	9.61	6.05	0.24	3.58	> 199	Active	–	–	–	–	–
c1cc(OCCCCCCCCOc2cccc(-c3nc4ccccc4[nH]3)c2)cc(-c2nc3ccccc3[nH]2)c1	4.5	29	5.9	13.1	4.28	0.45	52.4	23.5	–	–	–	–	–	–
c1ccc2[nH]c(-c3ccc(OCCCCCOc4ccc(-c5nc6ccccc6[nH]5)cc4)cc3)nc2c1	1.02	26	0.8	6.82	2.42	0.27	0.82	22.7	Active	–	–	–	–	–
c1ccc2[nH]c(-c3ccc(OCCCCCCCOc4ccc(-c5nc6ccccc6[nH]5)cc4)cc3)nc2c1	1.08	208	1.53	48.4	14.8	0.23	1.34	21.7	Active	–	–	–	–	–
c1ccc2[nH]c(-c3ccc(OCCCCCCCCCOc4ccc(-c5nc6ccccc6[nH]5)cc4)cc3)nc2c1	0.81	344	5.93	101	> 165	0.29	0.83	30.7	–	–	–	–	123	123
c1cc(OCCCCCCCCCCOc2cccc(-c3nc4ccccc4[nH]3)c2)cc(-c2nc3ccccc3[nH]2)c1	2.08	202	13.3	72.2	83.2	0.36	172	22.2	–	–	–	–	–	–
c1cc(OCCCCCCCOc2cccc(-c3nc4ccccc4[nH]3)c2)cc(-c2nc3ccccc3[nH]2)c1	1.37	291	2.69	118	1.82	0.41	25.8	56.7	Active	–	–	–	–	–
